Here are results for one compound from paper PMC5671735, “The Effect of CM082, an Oral Tyrosine Kinase Inhibitor, on Experimental Choroidal Neovascularization in Rats” (Journal of Ophthalmology, 2017).

Where “and” joins values, the source holds several entries; their conditions need not be identical. Identical values can stand only once.

Series [1] relates to laser-induced CNV rat model. The series is described as follows: CNV area in RPE-choroid-sclera flat mounts after FITC-dextran perfusion. It is filed as in vivo, Brown Norway (BN) rats. As to the method:
(§1) Laser photocoagulation-induced CNV was established as previously described. Preoperative preparation included general anesthesia, which was induced with an intraperitoneal injection of 1% pentobarbital sodium (40 mg/kg; Sigma-Aldrich, St. Louis, MO, USA). The rats' pupils were dilated using 0.5% tropicamide and 0.5% phenylephrine (Mydrin-P, Santen Pharmaceutical Co., Osaka, Japan). Surface anesthesia was induced with 0.5% Alcaine (Alcon (China) Ophthalmic Product Co., Beijing, China). Bruch's membrane of the right eye was injured using the following laser parameters: 532 nm wavelength, 360 mW intensity, 0.1 s duration, and 50 μm spot size. Eight to ten laser spots were applied to the major retinal vessels at approximately the same distance to the optic disc. A laser-induced cavitation bubble or slight hemorrhage indicated a rupture in Bruch's membrane. Fundus photography was taken immediately after laser photocoagulation to check for fundus hemorrhage.
To assess the inhibitory effects of CM082 on CNV development, the photocoagulated rats were randomly divided into 2 groups: (1) a CM082-treated group (n = 9) and (2) a vehicle-treated group (n = 9). CM082 (30 mg/kg/d or 5 ml/kg/d) or vehicle (5 ml/kg/d) was administered beginning on the 7th day after laser injury. On the 7th, 14th, or 21st day, 3 rats from each group were anesthetized, and the left ventricle of the heart was perfused with 2 ml of PBS containing 50 mg of fluorescein isothiocyanate- (FITC-) dextran (2 × 10^6 average molecular weight; Sigma-Aldrich). The enucleated eyes were fixed in 4% paraformaldehyde for 1 h. […] The CNV area was measured by ImageJ software (National Institutes of Health, Bethesda, MD, USA).
To further confirm the reverse effect of CM082 at a dose of 30 mg/kg/d on the CNV area, we prepared RPE-choroid-sclera by perfusion with FITC-dextran. […] In addition to comparing the CM082-treated group to the vehicle-treated group, we analyzed the CNV area in the CM082-treated group at different time points.

For series [2], the system named is laser-induced CNV rat model. The series is described as follows: CNV histology (HE staining). It is filed as in vivo, Brown Norway (BN) rats. As to the method:
as §1
The rats were euthanized after the FFA examination on day 14 or 21 after laser injury, and a histological examination was performed on 4 rats per group at each time point. The animals were enucleated, and the eyes were fixed in paraformaldehyde for 24 h (the eyelashes were also removed). After fixation, the eyes were embedded in paraffin and serially sectioned at 5 μm. […]

Series [3] deals with laser-induced CNV rat model. The series is described as follows: Fundus fluorescence angiography (FFA) of fluorescein leakage in laser-induced CNV. It is filed as in vivo, Brown Norway (BN) rats. As to the method: as §1
(§2) To assess the CM082 distribution and the inhibitory effects of CM082 on CNV development, the 70 rats were randomly divided into 2 groups: 10 rats for evaluating the CNV rat model and to detect the distribution of CM082 and its metabolites and 60 rats for assessing the effects of CM082 on the experimental CNV. CM082 was administered orally at dose of 10 mg/kg/d or 30 mg/kg/d, while the vehicle ([…]) was used as a negative control.
The preoperative preparations were the same as those used to establish the CNV model. Approximately 0.2 ml of 10% sodium fluorescein (Alcon Japan, Tokyo, Japan) was injected intraperitoneally, and the leakage of fluorescein from the laser lesions was monitored dynamically for up to 15 min. The images were obtained using confocal scanning laser ophthalmoscopy (Spectralis, Heidelberg Engineering Inc., Heidelberg, Germany) and analyzed using ImageJ software (National Institutes of Health, Bethesda, MD, USA). The signal intensities (brightness of the CNV lesions) defined the degree of leakage. As a reference, the intensity of the capillaries in the normal regions was defined as 0, whereas the intensity at the major branch of the retinal vein was defined as 1.
To determine whether CM082 inhibited CNV progression, 60 BN rats were divided into 4 groups and randomized by weight, with 10 rats receiving CM082 at 10 mg/kg/d, 10 receiving CM082 at 30 mg/kg/d, 20 receiving vehicle treatment, and 20 undergoing the RPE-choroid-sclera preparation. […] The CNV analysis was performed on day 14 or 21 after laser photocoagulation using FFA, histological examinations, and immunohistochemistry.

Series [4] is described as follows: LC-MS/MS concentrations of CM082 and its metabolites in plasma and ocular tissues after oral CM082. It is filed as in vivo, Brown Norway (BN) rats. As to the method: as §2
Liquid chromatography-tandem mass spectrometry (LC-MS/MS) was employed to detect the concentrations of CM082 and its metabolites (X-297 (C22H24FN5O3) and X-471 (C23H28FN5O4)) in the plasma and ocular tissues. An API-4000 triple-quadrupole mass spectrometer (AB Sciex, Framingham, MA, USA) coupled with a Shimadzu liquid chromatography system (Shimadzu Cooperation, Kyoto, Japan) was used for the analysis. CM082, its metabolites, and tolbutamide were dissolved in DMSO to generate 1.0 mg/ml stock solutions stored at 4°C. A total of 200 μl of the tolbutamide stock solution was dissolved in acetonitrile to produce internal-standard working solutions. The plasma and ocular tissue samples were analyzed along with the standard and quality-control samples. The data were analyzed with Analyst 1.6.1 (AB Sciex, Framingham, MA, USA).
Ten BN rats were photocoagulated in the oculus dexter (OD) to build the CNV rat model. Histological examination was performed at day 21, while FFA was conducted at days 14 and 21 to ensure that the CNV model was established successfully and to provide evidence that neovascularization was induced (Figures 1(a), 1(b), and 1(c)). After modeling CNV successfully, to investigate whether CM082 and its metabolites (X-297 and X-471) can reach the retina effectively, the rest of the nine rats were orally treated with CM082 at 10 mg/kg/d for 9 days, starting from day 22. […] Two days after FFA, the rats were sacrificed, and we determined the concentrations of CM082 in the plasma (ng/ml) and the ocular tissues (ng/g) 2 h after CM082 treatment. The concentrations of CM082 in the plasma, the oculus sinister (OS), and the OD were 196.87 ± 24.38 ng/ml, 172.74 ± 20.83 ng/g, and 172.97 ± 18.33 ng/g, respectively. The corresponding concentrations of X-297 were 34.42 ± 3.86 ng/ml, 31.28 ± 4.00 ng/g, and 31.11 ± 3.56 ng/g, while those of X-471 were 32.04 ± 4.57 ng/ml, 16.68 ± 2.18 ng/g, and 15.82 ± 1.85 ng/g.

Series [5] is classed as in vivo. Particulars: oral CM082 10 or 30 mg/kg/d. The text has this: […] BN rats were used in this study.
Series [6] relates to phosphorylated VEGFR-2 (p-VEGFR-2). As to the kind of experiment: Immunohistochemistry of phosphorylated VEGFR-2 in CNV eyes. It is filed as in vivo, Brown Norway (BN) rats. Particulars: CM082 30 mg/kg oral, 14 and 21 days after laser injury, vs vehicle. As to the method:
The rats were euthanized after the FFA examination on day 14 or 21 after laser injury, and a histological examination was performed on 4 rats per group at each time point. The animals were enucleated, and the eyes were fixed in paraformaldehyde for 24 h (the eyelashes were also removed). After fixation, the eyes were embedded in paraffin and serially sectioned at 5 μm. Routine hematoxylin-eosin (HE) staining was performed on selected slides, and the serial sections were examined using a light microscope. Immunohistochemical staining was performed on the histological sections from the CM082-treated and vehicle-treated groups 14 and 21 days after laser administration. Routine immunolocalization procedures were used to dewax and rehydrate the slides. The slides were incubated with 3% hydrogen peroxidase for 25 min and washed in phosphate-buffered saline (PBS) for 5 min. The slides were then blocked in goat serum for 15 min. Next, the sections were incubated with a phosphorylated anti-VEGFR-2 antibody (Nanjing Bioworld Biotech Co., Jiangsu, China) overnight at 4°C, followed by incubation with Goat Anti-Rabbit/Rat IgG antibody (Dako Denmark A/S, Denmark) for 30 min. The sections were subsequently incubated with horseradish peroxidase-conjugated streptavidin (Thermo Fisher Scientific China, Shanghai, China) for 30 min and then counterstained with hematoxylin for 2 min. […]

For series [7], the system named is oxidative-induced retinopathy. Particulars: CM082-treated group compared to control group; no reference given; cited from earlier work.
Series [8] relates to CNV model produced by subretinal injection of Matrigel. Particulars: no reference given; cited from earlier work.

In the case of `Cc1[nH]c(/C=C2\C(=O)Nc3ccc(F)cc32)c(C)c1C(=O)N[C@H]1CCN(C(=O)N(C)C)C1` [CM082], the “area of the CNV lesions” value in series [1] (30 mg/kg/d group, 7 days after laser photocoagulation, before dosing (baseline), vehicle 4.84 ± 0.72) is reported as 4.45 ± 0.90 μm^2 × 10^4; in series [1] (CM082 30 mg/kg/d oral from day 7, 14 days after laser injury, vehicle 9.60 ± 1.68), 1.48 ± 0.24 μm^2 × 10^4; in series [1] (CM082 30 mg/kg/d oral from day 7, 21 days after laser injury, vehicle 19.61) it was 1.03 ± 0.27 μm^2 × 10^4. Also, the “CNV lesion size by histology (HE)” value in series [2] (CM082 10 mg/kg/d oral, day 21, vs vehicle) was “smaller”. In addition, the “edema, depigmentation, and CNV areas by histology (HE)” value in series [2] (CM082 30 mg/kg/d oral, 14 and 21 days after laser photocoagulation, vs vehicle) is reported as “significantly decreased”. Further, the “FFA leakage signal intensity” value is reported as 0.78 ± 0.04 in series [3] (10 mg/kg/d group, day 7 after laser injury, before CM082 administration (baseline), scale 0 = capillaries, 1 = retinal vein, vehicle 0.81 ± 0.03); 0.77 ± 0.04 in series [3] (30 mg/kg/d group, day 7 after photocoagulation, before dosing (baseline), vehicle 0.81 ± 0.02, p > 0.05); 0.66 ± 0.05 in series [3] (CM082 10 mg/kg/d oral from day 7, day 21 after laser injury (14 days after dosing), vehicle 0.82 ± 0.03, p < 0.01); 0.42 ± 0.03 in series [3] (CM082 30 mg/kg/d oral from day 7, day 14, vehicle 0.83 ± 0.03, p < 0.001); 0.35 ± 0.05 in series [3] (CM082 30 mg/kg/d oral from day 7, day 21, vehicle 0.86 ± 0.02, p < 0.001). For the same compound, in series [3] (CM082 10 mg/kg/d oral started day 22 after laser, FFA after 7 days of administration (day 28), p > 0.05), the “FFA fluorescein leakage vs days 14 and 21” value is “no significant reduction in fluorescein leakage”. The “distribution within the ocular tissues” value in series [4] (2 h after CM082 administration, oral 10 mg/kg/d) was “highest in the retina-sclera”. In series [4] (CM082 oral 10 mg/kg/d for 9 days, 2 h after CM082 treatment, n = 9, eye without laser injury), the “concentration in the oculus sinister (OS)” value is reported as 172.74 ± 20.83 ng/g. For the same compound, in series [4] (CM082 oral 10 mg/kg/d for 9 days, 2 h after CM082 treatment, n = 9, photocoagulated eye), the “concentration in the oculus dexter (OD)” value is reported as 172.97 ± 18.33 ng/g. The “concentration in the plasma” value in series [4] (CM082 oral 10 mg/kg/d for 9 days, 2 h after CM082 treatment, n = 9, 10 mg/kg/day) is 196.87 ± 73.13 ng/mL and 196.87 ± 24.38 ng/mL. The “total concentration in the eyes” value in series [4] (oral CM082, abstract value) came to 172.86 ± 57.11 ng/g. Further, the tolerability during treatment entry in series [5] is “no behavioral change, death, or body weight loss”. Besides, in series [6], the p-VEGFR-2 immunostaining result is “reduced the aggregation of p-VEGFR-2 in the RPE and OPL”. Further, in series [7], the inhibition rate was 71.1%. Also, in series [8], the “areas of CNV lesions” value is recorded as “reduced the areas of CNV lesions”.
